According to patent US20110244028A1, “METHOD OF SOLUBILIZING BIOLOGICALLY ACTIVE COMPOUNDS” (priority 2008, published 2011):
Read-outs that look alike come from different tables or passages of the source.

Columns and labels:
[1] = cited from earlier work
[2] = for precipitation in liposomal dispersion after neutralization: 100 mg phospholipid/ml liposomes ca 30 nm in isotonic glycerol
Experimental: Visual assessment may be supported by comparing the transmission optical density (OD) measurements before and after the compound is added when the system is at equilibrium. […] The figures should be at least 80% of the initial transmission value of the blank dispersion which is used as a control. […] When the liposome dispersions are not sufficiently transparent the loading process can nevertheless be followed by e.g. using microscopy techniques to detect unassociated drug particles.
A first aqueous suspension comprising SUVs is prepared in a micro-fiuidizer. The dispersion contains 100 mg phospholipid/ml in isotonic glycerol solution.

[3] = control experiment without phospholipid: isotonic glycerol solution neutralized to pH 7.0; format: physicochemical
Experimental: In a control experiment 25 μl of the 100 mg phenytoin/ml solution in 1 M NaOH is added to 1.0 ml of isotonic glycerol solution to make up 2500 μg phenytoin/ml.

[4] = cited from earlier work; remark: listed apart in the source
[5] = cited from earlier work; remark: listed apart in the source
[6] = 5 mg drug/ml, neutralized to pH 7.0 with NaOH
[7] = 5 mg drug/ml in isotonic glycerol solution, neutralized to pH 7.0 with NaOH
[8] = 2.5 mg drug/ml in isotonic glycerol solution, neutralized to pH 7.0

Row | SMILES | precipitation in liposomal dispersion after neutralization [2, 6] | precipitation in control without lipid after neutralization [3, 7] | precipitation in control without lipid after neutralization [3, 8] | solubility at pH 1.2 [1] [μg/ml] | solubility in water at pH 7 [1] [μg/ml] | other results
1 | O=C1NC(=O)C(c2ccccc2)(c2ccccc2)N1 [Phenytoin sodium] | – | – | – | – | – | solubility at pH 10-pH13 ([1]; pH 10-pH13, according to Martindale): freely soluble
2 | CN1C(=O)CN=C(c2ccccc2)c2cc(Cl)ccc21 [diazepam] | remain dear without diazepam precipitates | precipitates out | – | – | – | –
3 | OCCN(CCO)c1nc(N2CCCCC2)c2nc(N(CCO)CCO)nc(N3CCCCC3)c2n1 [dipyridamole] | – | – | precipitates | 1753 | 5 | precipitation in liposomal dispersion after neutralization ([2]; 2.5 mg drug/ml, neutralized to pH 7.0): No precipitated dipyridamole is noticed; pKa [4]: 6.4
4 | CC(=O)N1CCN(c2ccc(OCC3COC(Cn4ccnc4)(c4ccc(Cl)cc4Cl)O3)cc2)CC1 (centres unmarked) [ketoconazole] | no precipitated ketoconazole can be seen | precipitates | – | 2729 | 2 | –
5 | O=C1NC(=O)C(c2ccccc2)(c2ccccc2)N1 [phenytoin] | – | – | precipitates | – | 3.7 | amount solubilized in the liposomes ([2]; pH 7): 2500 µg; Log P oil/water [5]: 2.3; solubility in water at pH 7 ([1]; listed as Phenytoin): 37 μg/ml
